Earlier results in patent US20250032494A1, “A COMBINATION TREATMENT FOR CANCER” (My Personal Therapeutics LTD, priority 2021, published 2025).

Assays:
[1] = patients; with and without co-administration of DMARDs
[2] = system: tumors with the BRAF V600 mutation; conditions: both in vitro and in vivo
[3] = patients; versus cytotoxic active controls dacarbazine or paclitaxel

CCOc1cc([C@@H](CS(C)(=O)=O)N2C(=O)c3cccc(NC(C)=O)c3C2=O)ccc1OC [Apremilast]
improvement over placebo [1]: statistically significant improvement over placebo

CC(=O)Nc1cccc(-n2c(=O)n(C3CC3)c(=O)c3c(Nc4ccc(I)cc4F)n(C)c(=O)c(C)c32)c1 [Trametinib]
cell growth of tumors with the BRAF V600 mutation [2]: inhibits cell growth
progression-free survival [3]: statistically significant increase in progression-free survival
